Entries after “also recorded” stand apart in the source; their conditions may differ.
Key:
oxytocin receptor (OXTR) = experiment: OXTR expression in skeletal muscle by real-time qRT PCR; type: in vivo, C57.B6 mice; settings: old mice, s.c. daily 7 days, compared to control HBSS
Method: Old C57.B6 male mice (23-24 mo) per were administered by subcutaneous injections with oxytocin (OXT), Alk5i, a mixture of OXT and Alk5i (OXT+Alk5i) or control in vivo for 7 days, daily. The expression levels of oxytocin receptor (OXTR) were assayed by real-time qRT PCR in skeletal muscle of these mice.
OT and/or A5i or control vehicle (HBSS) was injected subcutaneously to old male C57.B6 mice (23-24 month), daily for 7 days before sacrifice. 3 month C57.B6 male mice identically injected with HBSS were used as young controls
qPCR analysis: Tissue lysates from frozen muscle, liver, and brain embedded in OCT were prepared. 40 slices of 10 μm thick slices were collected and homogenized using QIAShredder (from QIAGEN). Total RNA was extracted with RNeasy Mini Kit (from QIAGEN) according to manufacturer's instructions. Reverse transcription was performed with Superscript III First-Stand Synthesis System (from Invitrogen) according to manufacturer's instructions. For real-time PCR amplification and quantification of gene of interest, 1 ug of total cDNA was used for the initial amplification using specific primers to each gene of interest; amplification was performed with a denaturation step at 95 C for 10 minutes, followed by 40 cycles of denaturation at 95 C for 15 seconds and primer extension at 60 C for 30 s. Real-time PCR was performed using iQ™ SYBR Green Supermix (from Bio-Rad) under CFX Connect Real-Time System (Bio-Rad). Reactions were run in triplicates. Housekeeping gene actin was used as an internal control to normalize the variability in expression levels, and results were analyzed using the 2-ΔΔCT method described (50).

[1] = tested on: neural stem cells (Sox-2+) in the subgranular zone of the Dentate Gyrus; experiment: Hippocampal neurogenesis in old mice (proliferating Sox-2+ neural stem cells in SGZ); type: in vivo; settings: old mice with CTX muscle injury, 7 days treatment, vs HBSS control
Method: In addition to the cohort that underwent muscle injury, we also performed a study with old mice that were not injured. Young mice administered with control HBSS served as control. […] Hippocampal neurogenesis was assayed in the same mice that were studied for muscle repair above and additionally for mice that were not injured by cardiotoxin. The numbers of proliferating neural stem cells (Sox2+Ki67+) cells per DG of SGZ of hippocampus were quantified in serial brain cryosections. […] NS=non-statistically significant. […] Scale bar=100 microns. […] Data quantification: Muscle regeneration indices were calculated by counting percent de-novo myofibers with central nuclei to total nuclei in multiple images of 10-micron muscle sections for independently treated animals. Muscle fibrosis was quantified by measuring fibrotic areas on Image J. These fibrotic areas were normalized to the area of the image taken at 20× (˜14000 micron^2). Hippocampal neurogenesis (Sox2+/Ki67+, Sox2/BrdU+), p16+SGZ cell numbers and CD45+ cell numbers were quantified by counting the number of respective cells (from multiple 25-35-micron IF brain sections) and for neurogenesis and p16+ cells, extrapolating these numbers to the total thickness of the dentate gyrus. […]

old mice = experiment: Four-limb hanging test; type: in vivo; settings: old mice without muscle injury; for strength (average hang time): 7-day treatment; for learning: percent improvement from first to second hang time: before and after 7-day treatment
Method: To assay functional performance, Alk5i alone (low dose), OT alone, Alk5i+OT and control HBSS were dosed to old mice without muscle injury, using young mice injected with HBSS as an additional control. The four-limb hanging test was given to all mice before and after the 7-day treatment. In order to better focus the test on the learning and memory aspects (rather than strength) we examined the percent improvement of each individual animal from the first to the second test session among all studied cohorts.
A four-limb hanging test was conducted with mice before and after treatment by injection of oxytocin (OT), Alk5 inhibitor (A5i) or both, or control HBSS (young and old). The maximal hang time from two trials was considered and the percent change for each animal before and after treatment is shown. A difference is observed between young and all old cohorts (p<0.04) except for the old+Alk5i+OT where there is no statistically significant difference with the young (p=0.5) (test, 1 tail, heteroscedastic).
Four limb hanging test: Muscle strength and endurance were determined by timing how long mice can hang upside down from a wire screen, as published (27). Briefly, each mouse was placed on a 1 cm. mesh, 1 mm wire screen, 30 cm over soft bedding, inverted and timed until the mouse fell. Each animal was given two to three trials with at least a 5-minute rest between trials. Hanging index is expressed as the maximum hang time times the weight of the mouse, with longer times or greater weight for a given time considered better performance.

p16 = p16 protein in primary myotubes (Western Blotting); type: cell-based; settings: 24 hours treatment
p21 [2] = settings: high dose, old mice; cited from earlier work
muscle regeneration = settings: short term subcutaneous injection; cited from earlier work
p21 [3] = settings: pERK-dependent manner; cited from earlier work

2-(3-(6-Methylpyridin-2-yl)-1H-pyrazol-4-yl)-1,5-naphthyridine [Alk5i]
OXTR expression levels in skeletal muscle (oxytocin receptor (OXTR)): reduced the levels of the oxytocin receptor (OTR)
OXTR levels diminished by (oxytocin receptor (OXTR)): 2 fold
hippocampal neurogenesis (Sox2+Ki67+ cells) [1]: failed to enhance the neurogenesis of the old animals
strength (average hang time) (old mice): young animals outperformed all old cohorts
learning: percent improvement from first to second hang time (old mice): did not show improvement
p16 protein levels in primary myotubes (p16): not either molecule alone
p21 levels in brain (p21 [2]): attenuates p21 levels in brain of old mice

CC[C@H](C)[C@@H]1NC(=O)[C@H](Cc2ccc(O)cc2)NC(=O)[C@@H](N)CSSC[C@@H](C(=O)N2CCC[C@H]2C(=O)N[C@@H](CC(C)C)C(=O)NCC(N)=O)NC(=O)[C@H](CC(N)=O)NC(=O)[C@H](CCC(N)=O)NC1=O [OT, Oxytocin]
OXTR expression levels in skeletal muscle (oxytocin receptor (OXTR); listed as OXT): had no effect; also recorded: did not have an effect on OXTR
hippocampal neurogenesis (Sox2+Ki67+ cells) [1]: failed to enhance the neurogenesis of the old animals
strength (average hang time) (old mice): young animals outperformed all old cohorts
learning: percent improvement from first to second hang time (old mice): did not show improvement
p16 protein levels in primary myotubes (p16): not either molecule alone
muscle regeneration in old mice (muscle regeneration): able to restore muscle regeneration in old mice
CDKI p21 (p21 [3]): down-modulate CDKI p21

— US20200155638A1, “Enhancing Oxytocin Receptor Expression Using an Oxytocin Receptor Agonist and an Alk5 Antagonist” (The Regents of the University of California, priority 2017, published 2020)
